Bridges are numbered along the chain shown (N, C = ends). Where no end group is shown, it is not given here.
Key:
TDAG8 [1] = target: T1, TDAG8 (Homo sapiens, UniProt Q8IYL9); experiment: SRE luciferase reporter in TDAG8-transfected HEK293 cells; assay type: cell-based; conditions: TDAG8 cotransfection
T1 construct: expressed in transfected cells

[2] = tested on: vector-transfected HEK293 cells; experiment: SRE luciferase reporter in vector-transfected HEK293 cells; assay type: cell-based, human
Protocol: (§1) The serum-response element (SRE) reporter system is a sensitive assay for receptors of lipid factors (An et al. (1998) J Biol Chem 273, 7906-7910; An et al. (1999) Mol Pharmacol 55, 787-794). The SRE reporter system used herein (pSRE-Luc) was a gift from Dr. Songzhu An (UCSF), or may be purchased from Stratagene (La Jolla, Calif.). Both systems give identical results. HEK293 and HEK293GPR4 cells were cultured in RPMI1640 with 10% FBS in 10 cm dishes to ˜85% confluence. To the cells in each dish, pSRE-Luc (10 μg) was transfected in the presence of 60 μl LipofectAMINE reagent. Cells were seeded in 96-well plates 16 h after transfection, incubated for another 24 h in RPMI1640 with 10% FBS, and starved in serum-free medium for 16 h. SPC (dissolved in PBS to 10 mM) and other lipids (LPCs were dissolved in 70% ethanol. Other lipids were dissolved in PBS, 70-95% ethanol, or 100% MeOH) were diluted in serum free RPMI 1640 and added to the cells, followed by a 10 h incubation. Luciferase activity was measured in Microlite™ 1 plates (DYNEX Technologies, Inc., Virginia) using 60 μl of cell lysate and 20 μl luciferase substrate. PTX (100 ng/ml) was added during the 16 h serum starvation period and pcDNA1-C3 (encoding the C3-exoenzyme, 2 μg) was co-transfected with pSRE-Luc (10 μg). All experiments were performed in quadruplicate and were repeated at least three times. The Student's t test was performed using the GraphPad Instat software (San Diego, Calif.). p<0.05 was considered to be statistically significant.

GPR4 [3] = target: T2, GPR4 (Homo sapiens, UniProt P46093); experiment: Cell migration in modified Boyden chamber, GPR4-ires-GFP vs GFP Swiss 3T3 cells; assay type: cell-based; conditions: for chemokinetic assay: cell motility vs controls: lipid 100 nM in both upper and lower chambers, GFP or GFP-GPR4 Swiss 3T3 cells
T2 construct: were used to generate full length GPR4, which was digested with EcoRI and Xba I and cloned into the pBs3HA vector; expressed in transfected cells
T2 sequence (P46093 whole entry): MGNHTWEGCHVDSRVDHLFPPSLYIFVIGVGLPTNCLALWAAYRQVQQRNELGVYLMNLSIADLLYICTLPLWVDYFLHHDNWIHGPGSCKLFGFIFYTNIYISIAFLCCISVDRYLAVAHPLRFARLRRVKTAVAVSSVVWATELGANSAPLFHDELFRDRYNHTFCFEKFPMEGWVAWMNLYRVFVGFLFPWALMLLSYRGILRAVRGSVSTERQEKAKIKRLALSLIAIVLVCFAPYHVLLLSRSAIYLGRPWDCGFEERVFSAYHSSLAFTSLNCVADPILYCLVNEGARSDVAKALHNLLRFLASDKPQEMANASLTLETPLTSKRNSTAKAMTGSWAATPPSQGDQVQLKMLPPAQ
Protocol: Chemotaxis was measured in a modified Boyden chamber assay. Briefly, different lipids were added to the lower chambers. GPR4-ires-GFP- and GFP-Swiss 3T3 cells were serum starved for 4 h, trypsinized, and seeded in the upper chambers of Boyden-transwell plates (Corning Inc., Corning, N.Y.). The chambers were incubated for 6 to 8 h. The number of cells that migrated to the lower face of the membrane was counted in 4 random fields. Data are represented as the average ±SD of three independent experiments. For the chemokinetic assay, the same concentrations of lipids were added to both the upper and lower chambers. For Rho inhibition studies, C3-exoenxyme was transiently transfected into Swiss 3T3 cells and cell migration assays were performed 48 hours later.

GPR4 [4] = target: T2, GPR4; experiment: Radioligand binding to homogenates of GPR4-transfected CHO cells; conditions: cold competitors, GPR4-transfected CHO cell homogenates
Protocol: (§2) To characterize the binding of SPC and LPC to GPR4 and TDAG8, we conducted radioligand binding assays. CHO cells were chosen for GPR4 binding assays, since HEK293 cells express relatively high levels of endogenous GPR4. CHO cells stably transfected with empty vector or GPR4 were serum starved for 20 h, then collected after exposure to 2 mM EDTA in PBS. The pelleted cells were stored at −80° C. until use. Binding assays were performed essentially as described previously (Xu et al. (2000) Nat Cell Biol 2, 261-267), except binding was performed at 4° C. Briefly, frozen cells (10^6 cells/ml) were homogenized in a binding buffer. Assays were performed in 96-well plates in triplicate with 100 μl cell homogenate (equivalent to 10^5 cells/well). Different amounts of [^3H]SPC or [^3H]16:0-LPC were added to the cell homogenates in 50 μl of binding buffer, in the presence or absence of cold SPC or 16:0-LPC, or other competitors. The plates were incubated at 4° C. for 120 min, unless otherwise indicated. Cell-bound [^3H]SPC or [^3H]LPC was collected onto a filter (Printed Filtermat A, Wallac, Gaithersburg, Md.) using an automated cell harvester (HARVESTER 96, Tomtec, Orange, Conn.). Specific binding was calculated by subtraction of nonspecific binding (binding detected in the presence of 100-fold excess unlabeled SPC or 16:0-LPC) from the total binding.
Cell homogenates were used for binding assays. Binding was conducted at 4° C. for 120 min or as indicated. [^3H]SPC and [^3H]16:0-LPC specifically bound to cell homogenates from GPR4-transfected CHO cells in a time-dependent manner and reached equilibrium after 60 min incubation at 4° C. […] The maximum binding capacities for SPC and 16:0-LPC were 996 fmole/10^5 cells for SPC and 1,528 fmole/10^5 cells for 16:0-LPC. […] Binding assays using [^3H]18:0-LPC gave similar results. We also tested the four glycosphingolipids, Psy, Glu-Sph, Gal-Cer, and Lac-Cer, for their ability to compete for the binding of [^3H]SPC and [^3H]16:0-LPC to GPR4.

GPR4 [5] = target: T2, GPR4; experiment: SRE luciferase reporter in GPR4-transfected HEK293 cells; assay type: cell-based; conditions: GPR4 cotransfection
Protocol: as §1

GPR4 [6] = target: T2, GPR4; experiment: ERK MAP kinase activation (phospho-ERK Western blot) in GPR4-infected Swiss 3T3 cells; assay type: cell-based; conditions: GPR4-ires-GFP vs GFP Swiss 3T3 cells; SPC and LPC 100 nM
Protocol: MAP kinases are key signaling intermediates of DNA synthesis and cell proliferation. Swiss 3T3 cells were infected with MSCV GPR4-ires-GFP or MSCV ires-GFP, and subsequently cells sorted by FACS for positive expression of GFP as described previously (Kabarowski et al. (2000) Proc Natl Acad Sci USA. 97, 12109-12114). Cells were plated in 6-well plates in DMEM containing 5% FBS, serum-starved overnight, and then treated lipids in DMEM for the indicated times. Cells were lysed on ice in RIPA buffer containing 50 mM Tris-HCl, pH 7.5, 1% Nonidet P-40, 0.5% deoxycholate,0.1% SDS, 150 mM NaCl, 2 mM EGTA, 25 mM sodium fluoride, 1 mM sodium orthovanadate, and 1× protease inhibitors (Sigma P8340). Lysates containing equal amounts of protein were separated on 10% SDS-polyacrylamide gels and transferred onto nitrocellulose membranes. Antibodies against phosphorylated ERK1/2 (Cell Signaling Technologies; Beverly, Mass.) were used to probe the membrane and the ECL system (Amersham) was used for detection. To normalize the amounts of protein loaded in each lane, membranes were stripped and re-probed with antibodies against total ERK (Cell Signaling Technologies). In some experiments, cells were pretreated with 100 ng/ml PTX for 12-16 h prior to SPC and LPC stimulation.

HEY ovarian cancer cells = experiment: DNA synthesis / growth of HEY ovarian cancer cells with SPC and phage preparations; assay type: cell-based, human; conditions: phage mixed with SPC, 30 min incubation
Protocol: To determine if these selected phage clones were capable of blocking a biological effect of SPC, we mixed phage preparations with SPC. After a 30 min incubation, this mixture was added to HEY cells and its effect on SPC-induced cell proliferation was tested. If a phage clone was carrying a specific sequence which binds to SPC, the addition of the phage to SPC could block the effect of SPC on HEY cells.

TDAG8 [7] = target: T1, TDAG8; experiment: Binding of phospholipids to TDAG8
Protocol: as §2
Using functional and binding assays, we have identified the ligands for TDAG8.

TDAG8 [8] = target: T1, TDAG8; experiment: TDAG8 receptor internalization; assay type: cell-based
Excerpt: G protein coupled receptors undergo agonist-dependent desensitization and internalization.

GPR4 [9] = target: T2, GPR4; experiment: Internalization of GPR4-GFP in HEK293 cells (confocal microscopy); assay type: cell-based; conditions: 1 μM lipid, 37° C., GPR4-GFP HEK293 cells
Protocol: pGPR4-GFP stably expressing HEK293 cells were cultured in 6 cm tissue culture dishes in RPMI1640 with 10% FBS. After 16-24 h serum starvation, cells were treated with different lipids at 37° C. for 2 h. Cells were washed with cold PBS and fixed with 4% paraformaldehyde in PBS. The subcellular localization of GPR4-GFP protein was visualized under a Leica TV confocal fluorescence microscope with a 63× oil immersion lens (Wetzler, Heidelberg, Germany). The excitation and emission wavelengths were 488 nm and 515-540 nm, respectively.
G protein coupled receptors undergo agonist-dependent desensitization and internalization. When HEK293 cells are transfected with the pEGFP-N1 vector, GFP protein is expressed in the cytosol of the cells. The GPR4-GFP and TDAG8-GFP fusion proteins, on the other hand, was expressed only on the plasma membrane.

T1 sequence (Q8IYL9 whole entry): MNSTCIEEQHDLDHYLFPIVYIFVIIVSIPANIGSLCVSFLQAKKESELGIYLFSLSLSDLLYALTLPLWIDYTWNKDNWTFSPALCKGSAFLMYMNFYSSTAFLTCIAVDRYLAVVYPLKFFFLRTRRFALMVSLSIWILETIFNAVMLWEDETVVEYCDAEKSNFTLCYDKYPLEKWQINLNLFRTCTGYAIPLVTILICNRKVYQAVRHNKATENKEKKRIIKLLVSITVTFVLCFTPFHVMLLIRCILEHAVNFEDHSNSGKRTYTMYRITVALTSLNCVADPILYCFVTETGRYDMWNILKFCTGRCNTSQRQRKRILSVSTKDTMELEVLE

Compound | transcriptional activation of SRE (in words) (TDAG8 [1]) | transcriptional activation of SRE (in words) [2] | cell migration in GPR4- vs. vector-transfected cells (in words) (GPR4 [3]) | chemokinetic assay: cell motility vs controls (GPR4 [3]) | competition for binding of [3H]SPC and [3H]16:0-LPC to GPR4 (GPR4 [4]) | transcriptional activation of SRE (in words) (GPR4 [5]) | GPR4-dependent ERK activation (in words) (GPR4 [6]) | effect of phage on the growth inhibitory effect of SPC (HEY ovarian cancer cells) | effect of phage on the growth inhibitory effect of SPC (HEY ovarian cancer cells; listed as clone 414) | effect of phage on the growth inhibitory effect of SPC (HEY ovarian cancer cells; listed as phage 414) | binding to TDAG8 (TDAG8 [7]) | TDAG8 receptor internalization (TDAG8 [8]) | internalization of GPR4 (GPR4 [9])
CCCCCCCCCCCCC/C=C/[C@@H](O)[C@@H](N)COP(=O)(O)O [S1P, sphingosine-1-phosphate] | not altered | induced significant transcriptional activation of SRE | did not alter cell migration | slightly inhibited | not | not altered | activation was independent of GPR4 expression | – | – | – | – | – | –
Cys-His-Thr-Gln-Ala-Asp-Ser-Cys (CHTQADSC; disulfide 1-8) [#414] | – | – | – | – | – | – | – | able to inhibit the growth inhibitory effect of SPC on HEY cells | inverted the growth inhibitory effect of SPC | blocked the growth inhibitory effect of SPC on DNA synthesis | – | – | –
lysophosphatidic acid [LPA] | not altered | induced significant transcriptional activation of SRE | did not alter cell migration | did not show a significant effect | not | not altered | – | – | – | – | – | – | –
platelet activating factor [PAF] | – | – | did not alter cell migration | slightly enhanced | not | none of them induced significant transcriptional activation of SRE | activation was independent of GPR4 expression | – | – | – | able to bind to TDAG8 | induced TDAG8 receptor internalization | not

From patent US20020107197A1, “Ligands for G protein coupled receptors and methods of using them” (priority 2000, published 2002)
